Test results reported in patent US20040167226A1, “Methods for the treatment of pain and traumatic injury using benzamides and compositions containing the same” (priority 2002, published 2004).
“Also recorded” adds a separate entry of the source.

Key:
[1] = system: Taxol-induced mechanical allodynia; assay: Taxol-induced neuropathic pain rat model, 50% paw withdrawal threshold (up-down method); assay type: in vivo, Sprague-Dawley rats; settings: rats
Excerpt: Sprague-Dawley male rats with 150-160 grams of body weight were used in the studies presented herein. Rats were trained in the enclosure one hour per day in the morning for a one week period prior to obtaining the baseline response. Whereas the mouse studies assessed percentage of response, the rat studies determined 50% of the paw withdrawal threshold, also called the up-down method as developed by Chung and colleagues. In order to obtain consistent data, naïve rats with paw withdrawal threshold no less than 4 grams were included for further studies. Taxol at a dose of 1 mg/kg (body weight) was administered daily to rats intraperitoneally. As observed in mice, the rats treated with Taxol daily developed stable mechanical allodynia on day 9 and thereafter. On day 13 and day 14 of Taxol induction, the rats pain behavior in term of 50% of paw withdrawal threshold was measured. Only those rats with paw withdrawal threshold measurements no greater than 7 grams for two consecutive days were included for drug testing. Generally speaking, the mechanical allodynia in Taxol treated rats fell in the range of 1-4 gram of paw withdrawal threshold.
1 ml per kg of body weight of either 50 mg/ml or 20 mg/ml of Compound A was administered to rats via oral gavage feeding (p.o.), to yield a dose of either 50 mg/Kg (body weight) or 20 mg/Kg (body weight). The same corresponding volume of 1% methylcellulose was used as vehicle control. 34 male Sprague-Dawely rats were employed for the study. The baseline paw withdrawal threshold (grams of force applied to the plantar area of the right hind paw) and neuropathic pain induction with daily intraperitoneal administration of 1 mg/kg (body weight) was performed as indicated in the previous section. The Taxol treatment was continued for 15 days until the pain threshold remained relatively stable. Animals with baseline greater than 4 grams and with threshold […] post induction were included in the drug testing. 27 rats met the criteria for the next step studies and were randomly assigned into four groups. Group 1 consisting of 7 rats was given 1% methylcellulose as vehicle control group, 1 ml of vehicle per kilograms of body weight was administered to animal via p.o.; group 2 with 6 animals was dosed at 20 mg/kg (body weight) of Compound A via oral gavage feeding (p.o.); group 3 with 7 rats was dosed at 50 mg/kg of Compound A, and the fourth group with 7 rats received Gabapentine at 50 mg/kg via p.o. in the same vehicle as a positive control group. Those rats were habituated in the enclosure and 50% of paw withdrawal thresholds (grams of force) were measured using a set of von Frey filaments, as described in the previous section, at time points of 1, 2, 3, 6, and 24 hours postdosing in a blinded fashion. The tester had no knowledge of which animals received drug or vehicle. It was noted that rats tested were very sleepy in the late afternoon (for 6 hour postdosing measurement), thus the data would not be reliable for 6-hour postdosing time points. […] After finishing the 24 hour postdosing measurement, the paw withdrawal threshold of each animal was calculated and data was analyzed.

[2] = system: Taxol-induced mechanical allodynia; assay: Taxol-induced neuropathic pain mouse model, von Frey filament paw withdrawal; assay type: in vivo, C57B16 mice; settings: mice
Description: C57B16 male mice were preconditioned (trained) in the enclosure one hour per day in the morning for one week prior to the baseline measurement. The baseline response to the mechanical stimulus was measured using a von Frey filament with 0.6 gram of force (von Frey number 3.84). Briefly, the von Frey filament, was applied to the plantar area of the right hind paw of mouse. The frequency of paw withdrawal was calculated in terms of percentage response, where the higher percentage indicates more pain, whereas the lower the percentage indicates less pain. Based on past experience with the C57B16 strain of adult male mice, animals with baseline no greater than 40% of response were included in further studies, while those with greater than 40% of paw withdrawal response to this particular force of stimulus, known as spontaneous mechanical allodynia, were discarded from these studies. The paw withdrawal behavior includes, licking the stimulated paw, vigorously shaking the paw and active avoidance upon application of innocuous mechanical stimuli. For those mice without spontaneous mechanical allodynia, Taxol was administered to the mice daily, 5 days a week, for longer than a one week period. Generally, mice treated with daily i.p. administration of 1 mg/kg (body weight) of Taxol develop relatively stable mechanical allodynia, neuropathic pain, on day 9 and thereafter. Prior to compound A administration, the responses of mice to 0.6 gram of von Frey filament were measured for two consecutive days in the morning. Only those mice with paw withdrawal response to this particular von Frey filament stimulus no less than 60%, counted as mechanical allodynia, were included for later testing with the compounds of interest.
Five-week old, male C57B1/6 mice were purchased from Charles River and housed at the Renovis animal facility in South San Francisco. Mice were trained for one week in an enclosure made of Plexiglas with dimensions of 2 in×2.5 in×3.5 in (W, H, and L) with a meshed metal support. The baseline of response to mechanical stimulus was measured using a von Frey Filament (0.6 g=3.84 mN). Normally, the baseline response is between 0 to 40%.
Taxol was dissolved (1 mg/ml) in 50% Cremophor EL and 50% alcohol, and freshly diluted with saline to the final concentration of 0.2 mg/ml in 10% Cremophor EL, 10% alcohol. Mice were administered Taxol at 1 mg/kg of body weight, via ip daily, while the animals of the control group received vehicle (10% Cremophor EL and 10% alcohol in saline).
Five-week old C57B1/6 male mice were trained for one week in the von Frey filament test, and baseline response (percent paw withdrawal over 40 tests) to a von Frey filament (0.6 gram=3.84 mN) was measured (average shown in the graph as “baseline (mean)”=31%).
Trained mice were treated with 1 mg/kg (body weight) taxol in 10% Cremophor EL/10% ethanol via ip injection daily through the end of the experiment in order to induce the neuropathic pain state.
The percent pain response (percent paw withdrawal over 40 tests) with a von Frey filament (0.6 gram=3.84 mN) was measured at day 8 and day 9 after pain induction (average of these two shown in the graph as “pre-dosing (mean)”=75%). Those animals with either sensitive baseline (>40% response) or without pain (<60% response) after 9 days of taxol injection were not included in the data analysis. Animals receiving this daily dose of Taxol will develop neuropathic pain.
[…] The animals were then placed in the enclosure for assay. Mechanical allodynia was measured with von Frey filament (0.6 g=3.84 mN) at various times after administration.
Nine taxol-treated animals received […] vehicle (75% polyethylene glycol (PEG)) via ip injection; 8 taxol-treated animals were injected ip with a suspension of Compound A in vehicle at dose of 50 mg/kg (body weight). […]

[3] = 20 mg/kg p.o. in 1% methylcellulose

CC(=O)Nc1ccc(C(=O)NC(C)(C)C)cc1 [Compound A, N-tert-butyl-4-acetamidobenzamide]
analgesic effect on neuropathic pain (in words) [1, 3]: has an analgesic effect
onset of analgesic effect [1, 3]: fast onset (one-hour postdosing)
time of peak analgesic effect postdosing [1, 3]: 2 h
paw withdrawal threshold ([1]; 20 mg/kg p.o. in 1% methylcellulose, vehicle about 4 grams): greater than 7 grams
pain blocking effect (in words) ([1]; 50 mg/kg p.o. in 1% methylcellulose): showed a pain blocking effect at 1 hour postdosing, with the effect diminished later on
analgesic effect compared with positive control ([1]; Compound A 20 mg/kg p.o. vs Gabapentine 50 mg/kg p.o.): comparable to the positive control
mechanical allodynia under chronic dosing vs vehicle control ([2]; 5 mg/kg/per day and 10 mg/kg/per day i.p., one dose per day, Cremophor EL/ETOH/saline): less mechanical allodynia
percentage response to 0.6 gram von Frey filament ([2]; 10 mg/kg i.p. in Cremophor EL/ETOH/saline, 3-hour postdosing, +/-SEM): 40+/−10.9%
percentage response to 0.6 gram von Frey filament ([2]; 10 mg/kg i.p. in Cremophor EL/ETOH/saline, 6-hour postdosing, +/-SEM): 42+/−95%
pain under chronic dosing ([2]; 10 mg/kg/per day i.p., Cremophor EL/ETOH/saline): much less pain
percentage response to 0.6 gram von Frey filament ([2]; 20 mg/kg i.p. in Cremophor EL/ETOH/saline, 3-hours postdosing, not statistically significant (p 0.08)): 59+/−8.1%
analgesic effect on Taxol-induced pain (in words) ([2]; 50 mg/kg i.p. single dose in 75% PEG-200, 50 mg/kg): has activity preventing Taxol-induced pain; also recorded: strong analgesic effect
percentage of paw withdraw response to 0.6 gram von Frey filament ([2]; 50 mg/kg i.p. single dose in 75% PEG-200, 1-hour postdosing, +/-SEM): 20+/−7.6%
percentage of paw withdraw response to 0.6 gram von Frey filament ([2]; 50 mg/kg i.p. single dose in 75% PEG-200, 2-hour postdosing (so in the source), +/-SEM): 32.5+/−13.1%
percentage of paw withdraw response to 0.6 gram von Frey filament ([2]; 50 mg/kg i.p. single dose in 75% PEG-200, 24-hour postdosing, +/-SEM): 50+/−9.3%
percentage of paw withdraw response to 0.6 gram von Frey filament ([2]; 50 mg/kg i.p. single dose in 75% PEG-200, 48-hour postdosing, +/-SEM): 65+/−6.3%
time of peak analgesic efficacy post dosing ([2]; 5 and 10 mg/kg i.p. in Cremophor EL/ETOH/saline): 3 h
drug tolerance or drug accumulation under chronic dosing ([2]; 5 and 10 mg/kg/per day i.p. chronic dosing): no significant drug tolerance or drug accumulation effects
